Data: patent US11992471B2, “Reelin/VEGF-C production/activation promoter and skin external composition using the same” (AMOREPACIFIC CORPORATION, priority 2021, dated 2024)

Columns and labels:
Type in all cases: cell-based
[1] = tested on: Human dermal lymphatic endothelial cells (HDLEC); test: Cytotoxicity analysis (WST-8 cell viability); details: within a concentration range of 200 ppm, cultured 24 hours and 72 hours, FIG. 1
Procedure: Human dermal lymphatic endothelial cells (HDLEC, PromoCell, Germany) were newly cultured in 96 well dishes for one day and then treated with a compound represented by Chemical Formula E-1 (Biogenics Company) at each concentration of 0 ppm ( ? ) to 200 ppm ( ? ). The cells were cultured for 24 hours and 72 hours, and then measured with respect to absorbance at 450 nm by using a QuantiMax WST-8 Cell viability assay kit to check cell viability, and the results are shown in FIG. 1.

VEGF-C = VEGF-C cytokine analysis (VEGFC human ELISA); details: HDLEC, 1 ppm and 10 ppm, 48 hours, compared with cells with no treatment (100%), FIG. 3
Procedure: After culturing human dermal lymphatic endothelial cells in 6 well plates for 24 hours, while the cells with no treatment (N.T) were used as a reference (100%), the cells were treated with the compound represented by Chemical Formula E-1 at each concentration of 1 ppm and 10 ppm and cultured for 48 hours and then measured with respect to production and activity of VEGF-C through a VEGF-C cytokine analysis by using a VEGFC human ELISA Kit (ThermoFisher, U.S.A.) according to a manual, and the results are shown in FIG. 3.

reelin = test: Reelin cytokine analysis (human reelin ELISA); details: HDLEC, 1 ppm and 10 ppm, 48 hours, compared with cells with no treatment (100%), FIG. 2
Procedure: After culturing human dermal lymphatic endothelial cells in 6 well plates for 24 hours, while the cells with no treatment (N.T) were used as a reference (100%), the cells were treated with the compound represented by Chemical Formula E-1 at each concentration of 1 ppm and 10 ppm and cultured for 48 hours and then measured with respect to production and activity of reelin through a reelin cytokine analysis by using human reelin ELISA Kit (Mybiosource, U.S.A.) according to a manual, and the results are shown in FIG. 2.

NCCS(=O)(=O)O [Chemical Formula E-1]
cytotoxicity (cell viability) [1]: no cytotoxicity | production and activity of VEGF-C (VEGF-C): further improve production and activity of VEGF-C | production and activity of reelin (reelin): further improve production and activity of reelin
